Source: patent US6852751B2, “Difluorobutyric acid metalloprotease inhibitors” (The Procter & Gamble Company, priority 2000, dated 2005)

System: human subject suffering from rheumatoid arthritis
Experiment: Treatment of a human subject with rheumatoid arthritis, oral tablets (Example A)
Assay type: in vivo
Conditions: tablet with 15 mg compound, three tablets per day orally for 2 years
Description: A tablet composition for oral administration, according to the present invention, is made comprising:
A human subject weighing 60 kg (132 lbs), suffering from rheumatoid arthritis, is treated by a method of this invention. Specifically, for 2 years, a regimen of three tablets per day is administered orally to said subject.

For `COc1ccc(-c2ccc(C(F)(F)CCC(=O)O)cc2)cc1` [Example 1, 4,4-Difluoro-4-(4′-methoxy-biphenyl-4-yl)-butyric Acid], the “examination at the end of the treatment period: inflammation, mobility, pain” value was “reduced inflammation and improved mobility without concomitant pain”.
